Legend:
[1] = test system: U87 cells; assay: Mitochondrial membrane potential/apoptosis, MitoTracker Red and Annexin V; format: cell-based, human; conditions: U87, 12 at 4 µM, control 5.7%
Protocol: In order to doublecheck the ΔψM-targeted effect of 12 and to assess the correlation between dissipation of ΔψM and induction of apoptosis in triterpenoid-treated glioblastoma cells, U87 cells were incubated with 12 at 4 µM for 6–24 h followed by their staining with a mix of MitoTracker Red, a fluorescent dye accumulated within mitochondria depending on their ΔψM, and fluorophore-conjugated annexin V, used to visualize apoptotic cells.
[…] cells plated in 6-well plates were treated with 12 at 4 μM for 6, 18 and 24 h and stained using a Mitochondrial Membrane Potential/Annexin V Apoptsis Kit (Molecular Probes, USA) according to the manufacturer’s instructions. Briefly, harvested cells were incubated in Annexin-binding buffer containing MitoTracker Red at 40 nM for 30 min under standard conditions. After that, the cells were washed with PBS, resuspended in Annexin-binding buffer containing 5 µL of Annexin V-Alexa Fluor 488 and incubated at room temperature for 15 min. After the incubation time, the cells were analyzed by flow cytometry. For each sample, 10,000 events were acquired.

[2] = test system: U87 cells; assay: Autophagy, MDC staining, U87; format: cell-based, human; conditions: 24 h
Protocol: Given that pentacyclic triterpenoids can induce tumor cell death not only by the apoptotic pathway but also by triggering autophagy, we next studied whether 12 stimulated autophagy in glioblastoma cells. For this, U87 and U118 cells were incubated with tryptamide 12 at toxic concentrations (2 or 4 µM) for 24 h followed by cell staining with monodansylcadaverine (MDC), a fluorescent dye specifically labeling autophagosomes. […] Considering that autophagy can be associated not only with cell death but also with cytoprotection, its role in the cytotoxicity of 12 in glioblastoma cells was further studied.
To evaluate the ability of 12 to induce autophagy, U87 and U118 cells were seeded at 2.8 × 10^5 cells/well in 6-well plates and incubated under standard conditions overnight followed by their treatment with 12 in amounts of 2 and 4 μM for 24 h. Then, the cells were collected and washed with PBS as described above and resuspended in 500 µL of PBS containing monodancylcadaverine (MDC) at 50 μM. After incubation for 15 min under standard conditions, the cells were washed with PBS and analyzed by flow cytometry. For each sample, 10,000 events were acquired.

[3] = test system: U118 cells; assay: MTT cytotoxicity assay, U118; format: cell-based; conditions: Homo sapiens, 24 h, read-out: IC50, Glioblastoma, U118
Protocol: (§1) To evaluate the antitumor activity of the synthesized soloxolone amides in brain tumor cells, the cytotoxicity of compounds 4–12, predicted as BBB-permeable (Figure 3), was further analyzed in human glioblastoma U87 and U118 cells, as well as human neuroblastoma KELLY and murine neuroblastoma Neuro2a cells.
(§2) The cells in the exponential growth phase were seeded in quadruplicate in 96-well plates at a density of 1 × 10^4 cells/well for HeLa, U87, U118, KELLY and Neuro2a cells; 1.5 × 10^4 cells/well for HuTu-80 cells; 2 × 10^4 cells/well for B16 cells; and 7 × 10^3 cells/well for hFF3 fibroblasts. Cells were incubated under standard conditions overnight followed by their treatment with the investigated compounds (1–20 µM) for 24 h. Then, 10 µL of MTT solution was added to the cells to a final concentration of 0.5 mg/mL and plates were placed under standard conditions for 3 h followed by an aspiration of MTT-containing medium and a dissolution of formazan crystals with 100 µL of DMSO. The absorbance of each well was read at test and reference wavelengths of 570 and 620 nm, respectively, on a Multiscan RC plate reader (Thermo LabSystems, Helsinki, Finland).

[4] = test system: U87 cells; assay: Vasculogenic mimicry on Matrigel; format: cell-based, human; conditions: 12 at 200 nM, 5 h
Protocol: Considering that vasculogenic mimicry (VM), a process whereby tumor cells form tumor cell-lined vasculatures to reinforce blood supply to cancerous tissue, plays a crucial role in glioblastoma progression and aggressiveness and that some pentacyclic triterpenoids can inhibit this process, next we studied whether 12 affects VM in glioblastoma cells.
A 96-well plate was placed on ice for pre-cooling and Matrigel®® Matrix (Corning, Corning, NY, USA) was thawed at 4 °C and added to each well of the plate (50 μL/well). Then, the plate was placed at 37 °C in 5% CO2 for 1 h to solidify the Matrigel. U87 cells were seeded at 2 × 10^4 cells/well on the Matrigel-coated wells and treated with 12 at 200 nM for 5 h. At the end of the incubation time, each well was analyzed under a microscope with a phase contrast Primo Vert (ZEISS, Germany). Tubular structures in each field were imaged with a AxioCam ERc5s camera (ZEISS, Germany) and the average number of tubules from three to four random fields in each well was quantified by ImageJ. The experiment was performed in triplicate.

[5] = test system: brain tumor cells; assay: MTT cytotoxicity, values summarised over brain tumor cells; format: cell-based; conditions: range over U87, U118, KELLY, Neuro2a; read-out: IC50 against brain malignant cells
Protocol: as §1, §2

[6] = test system: U118 cells; assay: Scratch assay (2D migration); format: cell-based, human; conditions: U118, 12 at 100 nM, 48 h
Protocol: To evaluate the ability of tryptamide 12 to suppress the migration potential of glioblastoma cells, two independent approaches were undertaken, including assessment of cell movement on a 2D surface (scratch assay) and through a trans-well membrane (CIM-Plate).
To assess the 2D motility of glioblastoma cells, U118 cells were seeded in triplicate in 6-well plates at a density of 8 × 10^5 cells/well and cultured to 80% confluence. Thereafter, the cell monolayers were scratched with 10 µL pipette tips and washed twice with PBS to remove floating cells and cell debris and treated with 12 at 100 nM for 48 h. At 0 h and 48 h, the scratched cell monolayers were imaged using a Primo Vert microscope with phase contrast optics (ZEISS, Oberkochen, Germany) equipped with a AxioCam ERc5s camera (ZEISS, Oberkochen, Germany). The wound closure rate was calculated using ImageJ software. In total, 4–5 regions on a single scratch were analyzed.

[7] = test system: U118 cells; assay: Colony formation assay, U118; format: cell-based, human; conditions: 14 days
Protocol: To evaluate the antitumor potential of 12 more comprehensively, its effects at non-toxic concentrations (25–500 nM; cell survival of ≥90%) on a range of metastatic-related processes in glioblastoma cells were studied. Firstly, we investigated the inhibitory activity of 12 on the clonogenic capacity of tumor cells in vitro, which reflects their ability to form colonies from single cells which characterizes the stemness of tumor cells and plays a crucial role in metastasis.
U118 cells were seeded in 96-well plates in six replicates at a density of 200 cells/well and treated with 12 at 25–500 nM for 14 days under standard conditions. The culture media were replaced with fresh media containing corresponding concentrations of 12 every 6 days. After the incubation time, cell colonies were fixed with 4% paraformaldehyde, stained with crystal violet dye (0.1% w/v) and photographed using the iBright 1500 Imaging System (Invitrogen, USA). The percentage of area covered by cell colonies was computed using the ColonyArea ImageJ plugin [95].

SMILES: CC1(C)C(=O)C(C#N)=C[C@]2(C)C3=CC(=O)[C@@H]4[C@@H]5C[C@@](C)(C(=O)NCCc6c[nH]c7ccccc67)CC[C@]5(C)CC[C@@]4(C)[C@]3(C)CC[C@@H]12 [compound 12]
- percentage of apoptotic cells with dissipated ΔψM ([1]; 6 h): 12.2%
- percentage of apoptotic cells with dissipated ΔψM ([1]; 18 h): 18.7%
- percentage of apoptotic cells with dissipated ΔψM ([1]; 24 h): 28%
- MDC-positive cells, U87 ([2]; 12 at 2 µM): 19.57%
- MDC-positive cells, U87 ([2]; 12 at 4 µM): 31.95%
- IC50 [3]: 1900 ± 200 nM
- decrease in numbers of tubular structures compared with untreated cells [4]: 2.2 fold
- IC50 [5]: 1600 to 1900 nM
- inhibition of 2D migration compared to the control [6]: two times
- reduction in the area of cell colonies compared to the control ([7]; U118, 12 at 200 nM): 1.4 fold
- reduction in the area of cell colonies compared to the control ([7]; U118, 12 at 500 nM): 2 fold

— paper PMC9145754, “Novel Soloxolone Amides as Potent Anti-Glioblastoma Candidates: Design, Synthesis, In Silico Analysis and Biological Activities In Vitro and In Vivo” (Pharmaceuticals, 2022)
